In patent US20090118286A1, “Heterobicyclic Acrylamides” (Bayer Cropscience AG, priority 2005, published 2009):

Assay: log P determination by HPLC (EEC Directive 79/831 Annex V.A8, gradient method)
Format: physicochemical

Physical data: logP | Physical data (logP) | SMILES
3.24 | – | Cc1csc2nc(-c3ccccc3Cl)c(/C=C/C(=O)Nc3ccc(Cl)cc3)n12 [Example 0899]
3.66 | – | Cc1csc2nc(-c3ccccc3Cl)c(/C=C/C(=O)Nc3ccc(OC(F)(F)F)cc3)n12 [Example 0900]
3.22 | – | Cc1csc2nc(-c3ccccc3Cl)c(/C=C/C(=O)NCC(F)(F)C(F)(F)C(F)(F)F)n12 [Example 0903]
2.77 | – | CC(C)NC(=O)/C=C/c1c(-c2ccccc2Cl)nc2scc(-c3ccccc3)n12 [Example 0904]
3.23 | – | CC(C)NC(=O)/C=C/c1c(-c2ccccc2Cl)nc2sc(C(F)(F)F)cn12 [Example 0906]
3.82 | – | CC(C)NC(=O)/C=C/c1c(-c2ccccc2Cl)nc2sc(Br)cn12 [Example 0908]
3.75 | – | O=C(/C=C/c1c(-c2ccc(F)cc2Cl)nc2sc(C(F)(F)F)nn12)NCCCC(F)(F)F [Example 0912]
3.71 | – | O=C(/C=C/c1c(-c2ccc(F)cc2Cl)nc2sc(C(F)(F)F)nn12)NC1(C(F)(F)F)CC1 [Example 0913]
4.10 | – | C[Si](C)(C)CNC(=O)/C=C/c1c(-c2ccc(F)cc2Cl)nc2sc(C(F)(F)F)nn12 [Example 0914]
4.11 | – | CC(C)(NC(=O)/C=C/c1c(-c2ccc(F)cc2Cl)nc2sc(C(F)(F)F)nn12)C(F)(F)F [Example 0915]
4.34 | – | O=C(C=Cc1c(-c2ccccc2Cl)nc2sc(C(F)(F)F)nn12)NC(c1ccc(F)cc1)C(F)(F)F (stereo not shown) [Example 0918]
4.71 | – | O=C(C=Cc1c(-c2ccccc2Cl)nc2sc(C(F)(F)F)nn12)NC(c1ccc(Cl)cc1)C(F)(F)F (stereo not shown) [Example 0919]
3.19 | – | CC(C)NC(=O)/C=C/c1c(-c2sccc2Cl)nc2sc(C(F)(F)F)nn12 [Example 0920]
4.23 | – | CC(C)C(NC(=O)C=Cc1c(-c2sccc2Cl)nc2sc(C(F)(F)F)nn12)C(F)(F)F (stereo not shown) [Example 0923]
2.85 | – | CC(C)NC(=O)/C=C/c1c(-c2ccc(Cl)nc2)nc2sc(C(F)(F)F)nn12 [Example 0933]
3.89 | – | CC(C)C(NC(=O)C=Cc1c(-c2ccc(Cl)nc2)nc2sc(C(F)(F)F)nn12)C(F)(F)F (stereo not shown) [Example 0936]
2.47 | – | CC(C)NC(=O)/C=C/c1c(-c2cccnc2Cl)nc2sc(C(F)(F)F)nn12 [Example 0946]
3.48 | – | CC(C)C(NC(=O)C=Cc1c(-c2cccnc2Cl)nc2sc(C(F)(F)F)nn12)C(F)(F)F (stereo not shown) [Example 0949]
3.66 | – | CC(C)NC(=O)/C=C/c1c(-c2ccccc2Cl)nc2sc(C(F)(F)C(F)(F)F)nn12 [Example 0959]
4.62 | – | CC(C)C(NC(=O)C=Cc1c(-c2ccccc2Cl)nc2sc(C(F)(F)C(F)(F)F)nn12)C(F)(F)F (stereo not shown) [Example 0962]
3.79 | – | CC(C)NC(=O)/C=C/c1c(-c2ccc(F)cc2Cl)nc2sc(C(F)(F)C(F)(F)F)nn12 [Example 0972]
4.76 | – | CC(C)C(NC(=O)C=Cc1c(-c2ccc(F)cc2Cl)nc2sc(C(F)(F)C(F)(F)F)nn12)C(F)(F)F (stereo not shown) [Example 0975]
3.27 | – | CC(C)NC(=O)/C=C/c1c(-c2nccs2)nc2sc(C(F)(F)C(F)(F)F)nn12 [Example 0985]
4.35 | – | CC(C)C(NC(=O)C=Cc1c(-c2nccs2)nc2sc(C(F)(F)C(F)(F)F)nn12)C(F)(F)F (stereo not shown) [Example 0988]
– | 1.79 | O=Cc1c(-c2ccccc2Cl)nc2scnn12 [IVA110]
– | 3.47 | O=Cc1c(-c2ccccc2Cl)nc2sc(C(F)(F)C(F)(F)F)nn12 [IVA111]
– | 3.63 | O=Cc1c(-c2ccc(F)cc2Cl)nc2sc(C(F)(F)C(F)(F)F)nn12 [IVA112]
– | 2.43 | O=Cc1c(-c2nccs2)nc2sc(C(F)(F)F)nn12 [IVA113]

Physical data: logP | Physical data (logP) | SMILES
– | 3.03 | O=Cc1c(-c2nccs2)nc2sc(C(F)(F)C(F)(F)F)nn12 [IVA114]
– | 2.62 | O=Cc1c(-c2cncc(Br)c2)nc2sc(C(F)(F)F)nn12 [IVA115]
– | 2.14 | O=Cc1c(-c2cccnc2Cl)nc2sc(C(F)(F)F)nn12 [IVA116]
– | 4.08 | O=Cc1c(-c2ccc(-c3ccccc3)cc2)nc2sc(C(F)(F)F)nn12 [IVA118]
– | 4.63 | O=Cc1c(-c2ccc(-c3ccc(Cl)cc3)cc2)nc2sc(C(F)(F)F)nn12 [IVA119]
– | 4.02 | O=Cc1c(-c2ccc(OCc3ccccc3)cc2)nc2sc(C(F)(F)F)nn12 [IVA120]
– | 4.78 | O=Cc1c(-c2ccc(-c3ccc(OC(F)(F)F)cc3)cc2)nc2sc(C(F)(F)F)nn12 [IVA121]
– | 4.56 | O=Cc1c(-c2ccc(Oc3ccc(Cl)cc3)cc2)nc2sc(C(F)(F)F)nn12 [IVA122]
– | 2.54 | O=Cc1c(-c2ccc(Cl)nc2)nc2sc(C(F)(F)F)nn12 [IVA123]
– | 2.92 | O=Cc1c(-c2sccc2Cl)nc2sc(C(F)(F)F)nn12 [IVA124]
– | 1.84 | O=C(O)/C=C/c1c(-c2ccccc2Cl)nc2scnn12 [VA112]
– | 3.19 | O=C(O)/C=C/c1c(-c2ccccc2Cl)nc2sc(C(F)(F)C(F)(F)F)nn12 [VA113]
– | 3.31 | O=C(O)/C=C/c1c(-c2ccc(F)cc2Cl)nc2sc(C(F)(F)C(F)(F)F)nn12 [VA114]
– | 2.48 | O=C(O)/C=C/c1c(-c2nccs2)nc2sc(C(F)(F)F)nn12 [VA115]
– | 2.97 | O=C(O)/C=C/c1c(-c2nccs2)nc2sc(C(F)(F)C(F)(F)F)nn12 [VA116]
– | 2.54 | O=C(O)/C=C/c1c(-c2cncc(Br)c2)nc2sc(C(F)(F)F)nn12 [VA117]
– | 2.1 | O=C(O)/C=C/c1c(-c2cccnc2Cl)nc2sc(C(F)(F)F)nn12 [VA118]
– | 3.77 | O=C(O)/C=C/c1c(-c2ccc(-c3ccccc3)cc2)nc2sc(C(F)(F)F)nn12 [VA120]
– | 4.26 | O=C(O)/C=C/c1c(-c2ccc(-c3ccc(Cl)cc3)cc2)nc2sc(C(F)(F)F)nn12 [VA121]
– | 3.73 | O=C(O)/C=C/c1c(-c2ccc(OCc3ccccc3)cc2)nc2sc(C(F)(F)F)nn12 [VA122]
– | 4.46 | O=C(O)/C=C/c1c(-c2ccc(-c3ccc(OC(F)(F)F)cc3)cc2)nc2sc(C(F)(F)F)nn12 [VA123]
– | 4.22 | O=C(O)/C=C/c1c(-c2ccc(Oc3ccc(Cl)cc3)cc2)nc2sc(C(F)(F)F)nn12 [VA124]
– | 2.42 | O=C(O)/C=C/c1c(-c2ccc(Cl)nc2)nc2sc(C(F)(F)F)nn12 [VA125]
– | 2.72 | O=C(O)/C=C/c1c(-c2sccc2Cl)nc2sc(C(F)(F)F)nn12 [VA126]
– | 3.01 | O=C(O)/C=C/c1c(-c2ccc(F)cc2Cl)nc2sc(C(F)(F)C(F)F)nn12 [VA134]
– | 3.75 | O=C(O)/C=C/c1c(-c2ccc(F)cc2Cl)nc2sc(C(F)(F)C(F)(F)C(F)(F)F)nn12 [VA135]
– | 3.25 | O=C(O)/C=C/c1c(-c2csc(Cl)n2)nc2sc(C(F)(F)C(F)(F)F)nn12 [VA136]
